Measured values: paper PMC2893389 (Biochemistry, 2010)
Values joined by “and” are separate entries in the source; they are usually repeats but may differ in a detail not shown here. Identical values can stand only once. Like-named read-outs stand apart in the source and are kept apart here.

Legend:
[1] = molecular target: T1, A467G PEPCK (rat cPEPCK mutant) (Rattus norvegicus, UniProt P07379, A467G); test: Assay B: PEP+GDP+CO2→OAA+GTP, coupled MDH assay; assay type: biochemical
T1 sequence (P07379 1-622 A467G): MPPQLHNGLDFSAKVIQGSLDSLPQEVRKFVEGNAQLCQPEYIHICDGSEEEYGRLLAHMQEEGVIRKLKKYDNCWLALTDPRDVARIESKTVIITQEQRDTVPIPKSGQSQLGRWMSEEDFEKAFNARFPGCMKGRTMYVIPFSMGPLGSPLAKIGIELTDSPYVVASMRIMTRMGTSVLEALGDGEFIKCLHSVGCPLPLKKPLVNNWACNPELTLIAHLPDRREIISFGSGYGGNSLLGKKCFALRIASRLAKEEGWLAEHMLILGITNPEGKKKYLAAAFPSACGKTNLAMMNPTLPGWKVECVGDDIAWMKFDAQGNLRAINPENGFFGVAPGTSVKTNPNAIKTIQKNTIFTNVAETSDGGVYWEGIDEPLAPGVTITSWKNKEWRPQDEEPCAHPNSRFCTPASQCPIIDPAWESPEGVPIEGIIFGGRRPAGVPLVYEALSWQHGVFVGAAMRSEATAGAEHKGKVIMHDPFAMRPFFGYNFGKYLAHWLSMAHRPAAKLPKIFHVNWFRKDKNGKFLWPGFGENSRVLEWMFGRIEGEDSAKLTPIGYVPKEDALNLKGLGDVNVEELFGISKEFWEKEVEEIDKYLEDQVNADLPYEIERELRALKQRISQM

[2] = molecular target: T2, WT rat cPEPCK (Rattus norvegicus, UniProt P07379); test: Assay C: OAA+GTP→pyruvate+GTP+CO2; assay type: biochemical; details: WT PEPCK; GTPγS in place of GTP
T2 sequence (P07379 1-622): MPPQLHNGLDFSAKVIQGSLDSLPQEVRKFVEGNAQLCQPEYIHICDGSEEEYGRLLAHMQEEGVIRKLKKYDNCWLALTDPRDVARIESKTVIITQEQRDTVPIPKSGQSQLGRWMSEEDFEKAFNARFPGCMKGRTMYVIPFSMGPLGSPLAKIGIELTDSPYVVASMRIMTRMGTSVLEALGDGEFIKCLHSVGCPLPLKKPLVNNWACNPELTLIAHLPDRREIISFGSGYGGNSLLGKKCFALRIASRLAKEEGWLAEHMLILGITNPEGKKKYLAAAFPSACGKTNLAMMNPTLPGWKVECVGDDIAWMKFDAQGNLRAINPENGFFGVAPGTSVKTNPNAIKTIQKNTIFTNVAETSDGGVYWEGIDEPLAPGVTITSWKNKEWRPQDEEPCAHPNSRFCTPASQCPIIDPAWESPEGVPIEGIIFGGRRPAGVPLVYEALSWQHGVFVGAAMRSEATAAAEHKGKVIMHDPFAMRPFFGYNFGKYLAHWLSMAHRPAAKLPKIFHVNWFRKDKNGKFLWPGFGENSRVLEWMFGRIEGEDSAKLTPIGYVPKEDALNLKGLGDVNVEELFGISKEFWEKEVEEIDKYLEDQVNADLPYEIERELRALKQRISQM

[3] = molecular target: T2, WT rat cPEPCK; test: Assay A: OAA+GTP→PEP+CO2+GDP, coupled PK/LDH assay; assay type: biochemical
[4] = molecular target: T1, A467G PEPCK (rat cPEPCK mutant); test: Inhibitor assays with substrate analogues; details: for change in affinity, A467G vs WT: from Ki values of the inhibition experiments
[5] = molecular target: T2, WT rat cPEPCK; test: Inhibitor assays with substrate analogues
[6] = molecular target: T1, A467G PEPCK (rat cPEPCK mutant); test: Assay A: OAA+GTP→PEP+CO2+GDP, coupled PK/LDH assay; assay type: biochemical
[7] = molecular target: T1, A467G PEPCK (rat cPEPCK mutant); test: Assay D: OAA+GDP→pyruvate+GDP+CO2; assay type: biochemical
[8] = molecular target: PEPCK; details: pyruvate only weakly associates with PEPCK; cited from earlier work
[9] = molecular target: T2, WT rat cPEPCK; test: Assay B: PEP+GDP+CO2→OAA+GTP, coupled MDH assay; assay type: biochemical; details: Wild-type, 25 °C
[10] = substrate: O=C(O)CC(=O)C(=O)O; test: purified protein, by the assay type; assay type: biochemical, rat; details: OAA + GDP → Pyruvate + GDP + CO2, 25 °C
[11] = WT PEPCK, slow substrate GTPγS in place of GTP, OAA→PEP

## Nc1nc2c(ncn2[C@@H]2O[C@H](COP(=O)(O)OP(=O)(O)O)[C@@H](O)[C@H]2O)c(=O)[nH]1 [GDP, guanosine-5′-diphosphate]
[1]; assay B, PEP→OAA
  kcat/KM of A467G as % of WT: 3%

## Nc1nc2c(ncn2[C@@H]2O[C@H](COP(=O)(O)OP(=O)(O)OP(O)(O)=S)[C@@H](O)[C@H]2O)c(=O)[nH]1 [GTPγS, guanosine 5′-O-[gamma-thio]triphosphate]
[2]
  pyruvate formation during the OAA→PEP reaction: did not observe any pyrvuate formation
[3]; [11]
  Km: 39 µM
  kcat: 13 s⁻¹

## O=C(O)C(=O)O [oxalate]
[4]
  change in affinity, A467G vs WT: approximately a factor of eight
[4]; from oxalate Ki, extrapolated to the enolate intermediate
  loss in binding energy / decreased stabilization in A467G vs WT: ~ 5.3 kJ mol^−1
[5]
  Ki: 106 ± 6 µM

## Nc1nc2c(ncn2[C@@H]2O[C@H](COP(=O)(O)OP(=O)(O)OP(=O)(O)O)[C@@H](O)[C@H]2O)c(=O)[nH]1 [GTP, guanosine-5′-triphosphate]
[6]; assay A, OAA→PEP
  change in KM, A467G vs WT (factor): 1.4
  decrease in kcat/KM, A467G vs WT: less than a factor of three

## C=C(OP(=O)(O)O)C(=O)O [PEP, phosphoenolpyruvate]
[1]; assay B, PEP→OAA
  KM of A467G as % of WT: 21% and ~ 21%
  reduction in catalytic efficiency of A467G relative to WT: factor of four

## O=C(O)COP(=O)(O)O [PGA, 2-phosphoglycolate]
[4]
  change in affinity, A467G vs WT: increases by less than a factor of two
[5]; Wild-type, assay B, against PEP, 25 °C
  Ki: 2530 ± 13 µM

## O=C(O)CC(=O)C(=O)O [OAA, oxaloacetic acid]
[7]
  efficiency of WT relative to A467G at catalyzing decarboxylation of OAA: 20 fold
[6]; assay A, OAA→PEP
  kcat/KM of A467G as % of WT: 1.9% and 2%
[6]; assay A, OAA→PEP, higher in A467G
  KM of A467G relative to WT: 14 fold

## CC(=O)C(=O)O [pyruvate]
[8]
  Ki: 9 mM

## O=C(O)C(=O)CS(=O)(=O)O [βSP, 3-sulfopyruvate]
[4]
  change in affinity, A467G vs WT: factor of approximately two
[5]; Wild-type, assay A, against OAA, competitive (slope) Ki, 25 °C
  Ki: 26 ± 1 µM

## O=C=O [CO2]
[1]; A467G, PEP + CO2 + GDP → OAA + GTP, 25 °C, labelled substrate varied
  Km: 814 ± 98 µM
[9]; labelled substrate varied
  Km: 1.19 ± 0.109 mM

B1: WT rat cPEPCK (Rattus norvegicus) (protein)
chain: MPPQLHNGLDFSAKVIQGSLDSLPQEVRKFVEGNAQLCQPEYIHICDGSEEEYGRLLAHMQEEGVIRKLKKYDNCWLALTDPRDVARIESKTVIITQEQRDTVPIPKSGQSQLGRWMSEEDFEKAFNARFPGCMKGRTMYVIPFSMGPLGSPLAKIGIELTDSPYVVASMRIMTRMGTSVLEALGDGEFIKCLHSVGCPLPLKKPLVNNWACNPELTLIAHLPDRREIISFGSGYGGNSLLGKKCFALRIASRLAKEEGWLAEHMLILGITNPEGKKKYLAAAFPSACGKTNLAMMNPTLPGWKVECVGDDIAWMKFDAQGNLRAINPENGFFGVAPGTSVKTNPNAIKTIQKNTIFTNVAETSDGGVYWEGIDEPLAPGVTITSWKNKEWRPQDEEPCAHPNSRFCTPASQCPIIDPAWESPEGVPIEGIIFGGRRPAGVPLVYEALSWQHGVFVGAAMRSEATAAAEHKGKVIMHDPFAMRPFFGYNFGKYLAHWLSMAHRPAAKLPKIFHVNWFRKDKNGKFLWPGFGENSRVLEWMFGRIEGEDSAKLTPIGYVPKEDALNLKGLGDVNVEELFGISKEFWEKEVEEIDKYLEDQVNADLPYEIERELRALKQRISQM
[3]; Wild-type, OAA + GTP → PEP + GDP + CO2, 25 °C
  kcat: 54 ± 0.2 s⁻¹
[10]; other: Wild-type
  Km: 117 ± 11 µM
  kcat: 2.3 ± 0.1 s⁻¹
  kcat/Km: 20000 M⁻¹ s⁻¹
[9]
  kcat: 19 ± 0.8 s⁻¹

B2: A467G PEPCK (rat cPEPCK mutant) (Rattus norvegicus; A467G) (protein)
chain: MPPQLHNGLDFSAKVIQGSLDSLPQEVRKFVEGNAQLCQPEYIHICDGSEEEYGRLLAHMQEEGVIRKLKKYDNCWLALTDPRDVARIESKTVIITQEQRDTVPIPKSGQSQLGRWMSEEDFEKAFNARFPGCMKGRTMYVIPFSMGPLGSPLAKIGIELTDSPYVVASMRIMTRMGTSVLEALGDGEFIKCLHSVGCPLPLKKPLVNNWACNPELTLIAHLPDRREIISFGSGYGGNSLLGKKCFALRIASRLAKEEGWLAEHMLILGITNPEGKKKYLAAAFPSACGKTNLAMMNPTLPGWKVECVGDDIAWMKFDAQGNLRAINPENGFFGVAPGTSVKTNPNAIKTIQKNTIFTNVAETSDGGVYWEGIDEPLAPGVTITSWKNKEWRPQDEEPCAHPNSRFCTPASQCPIIDPAWESPEGVPIEGIIFGGRRPAGVPLVYEALSWQHGVFVGAAMRSEATAGAEHKGKVIMHDPFAMRPFFGYNFGKYLAHWLSMAHRPAAKLPKIFHVNWFRKDKNGKFLWPGFGENSRVLEWMFGRIEGEDSAKLTPIGYVPKEDALNLKGLGDVNVEELFGISKEFWEKEVEEIDKYLEDQVNADLPYEIERELRALKQRISQM
[1]; A467G, PEP + CO2 + GDP → OAA + GTP, 25 °C
  kcat: 1 ± 0.1 s⁻¹
[6]; A467G, OAA + GTP → PEP + GDP + CO2, 25 °C
  kcat: 14 ± 0.1 s⁻¹
[10]; other: A467G
  Km: 970 ± 118 µM
  kcat: 1.3 ± 0.1 s⁻¹
  kcat/Km: 1000 M⁻¹ s⁻¹
